Assay results from PubChem BioAssay AID849 (SRMLSC, 2007).
Active and inactive are the calls of the source. No rule for the calls is given here.

The compounds below were run on Saccharomyces cerevisiae lifespan shortening, growth inhibition (assay: yeast lifespan shortening compounds, dose response (AID 849);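 also: yeast growth read as optical density after two days at 30 degrees C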).

Question: `COc1ccc(CNC(=O)CSc2nnc(-c3ccc(NC(C)=O)cc3)n2C)cc1` was tested. Which IC50 did it give?
Answer: Its IC50 is > 100 µM (inactive).

Question: For `O=C(N/N=C/c1sc2ccccc2c1O)c1cccc2ccccc12`, which IC50 is on record?
Answer: Its IC50 is 21 µM.

Question: With `COc1ccc(-c2nnc3sc(C(C)N4C(=O)c5ccccc5C4=O)nn23)cc1` (stereo not given) as the compound, how does the IC50 read?
Answer: Its IC50 is > 100 µM (inactive).

Question: For `CCC(=O)NC(c1ccc(C)cc1)c1cc([N+](=O)[O-])c2cccnc2c1O` (stereo not given), which IC50 is on record?
Answer: Its IC50 is 25.3 µM.

Question: Which IC50 does the source give for `CCCCc1ccc(NC(=S)Nc2ccc(Nc3ccc(OC)cc3)cc2)cc1` here?
Answer: The IC50 was 33.1 µM.

Question: With `CCCOC(=O)c1ccc(Oc2cn[nH]c2-c2ccc(OC)cc2O)cc1` as the compound, how does the IC50 read?
Answer: The IC50 was 26 µM.

Question: For `CC(=O)NC(=S)c1c(N)n(Cc2ccccc2)c(=O)n(C)c1=O`, which IC50 is on record?
Answer: Its IC50 is > 100 µM (inactive).

Question: With `COC1=C(N)C(=O)c2nc(-c3nc(C(=O)O)c(C)c(-c4ccc(OC)c(OC)c4O)c3N)ccc2C1=O` as the compound, how does the IC50 read?
Answer: Its IC50 is 0.212 µM.

Question: Which IC50 does the source give for `CC(C)(C)c1nnc(N/N=C/c2cc(Br)ccc2O)n(N)c1=O` here?
Answer: Its IC50 is 50 µM.

Question: `Cc1nc2c(c(C)c1C#N)C(=O)c1ccccc1-2` was tested. Which IC50 did it give?
Answer: The IC50 was 38.8 µM.

Question: How did the IC50 turn out when `CN(C)CCNC=C(C(=O)Nc1ccc(Cl)cc1Cl)C(=O)Nc1ccc(Cl)cc1Cl` was run?
Answer: The IC50 was 23.9 µM.

Question: Which IC50 does the source give for `O=C(Cc1cccs1)NNC(=S)NC(=O)c1ccccc1` here?
Answer: Its IC50 is > 100 µM (inactive).

Question: For `CCOC(=O)c1cnc(-n2nc(C)cc2C)nc1NNc1cc(C)nc(-c2ccccc2)n1`, which IC50 is on record?
Answer: The IC50 was > 100 µM (inactive).

Question: For `O=C1c2ccccc2C(=O)c2c1cccc2N1CCOCC1`, which IC50 is on record?
Answer: Its IC50 is 46.6 µM.

Question: How did the IC50 turn out when `CCN1CCN(C(=O)C(NS(=O)(=O)c2ccc3nc(C)sc3c2)C(C)C)CC1` (stereo not given) was run?
Answer: Its IC50 is > 100 µM (inactive).

Question: `CC(=O)NC(CCS(C)(=O)=O)C(=O)Nc1ccc2c(c1)OCO2` (stereo not given) was tested. Which IC50 did it give?
Answer: Its IC50 is > 100 µM (inactive).

Question: How did the IC50 turn out when `CCOCC(=O)Nc1nc2c(s1)C(=O)CC(C)(C)C2` was run?
Answer: The IC50 was > 100 µM (inactive).

Question: For `Cc1cc(C)cc(N=Cc2ccc([N+](=O)[O-])s2)c1`, which IC50 is on record?
Answer: The IC50 was 13.1 µM.

Question: With `Cc1oc(-c2ccc3c(c2)OCCO3)cc1C(=O)O` as the compound, how does the IC50 read?
Answer: The IC50 was 16.8 µM.

Question: `O=C(Nc1ccc(Cl)cc1)ON=C1CCCC1` was tested. Which IC50 did it give?
Answer: The IC50 was 3.69 µM.

Question: How did the IC50 turn out when `Cc1cc(/C=N/n2cnnc2)c(C)n1-c1ccc(OCc2ccc(Cl)cc2Cl)cc1` was run?
Answer: The IC50 was > 100 µM (inactive).

Question: Which IC50 does the source give for `COc1ccc(C(=O)/C=C/N2CCCCC2)cc1OC` here?
Answer: Its IC50 is 21.4 µM.

Question: How did the IC50 turn out when `CCOC(=O)/C(=N\Nc1ccccc1Cl)N1CCN(Cc2ccccc2)CC1` was run?
Answer: The IC50 was 17.9 µM.

Question: Which IC50 does the source give for `O=c1oc2ccccc2c(O)c1/C=C1\C=Nc2ccccc21` here?
Answer: Its IC50 is 18 µM.

Question: Which IC50 does the source give for `O=C(Nc1cc(C(F)(F)F)ccc1Cl)C(Sc1cccc[n+]1[O-])c1ccccc1` (stereo not given) here?
Answer: The IC50 was 4.89 µM.

Question: For `CN1C(=O)c2cccc3c(Cl)ccc(c23)C1=O`, which IC50 is on record?
Answer: Its IC50 is > 100 µM (inactive).

Question: With `Cc1ccc(-c2cc(C(=O)N3N=C(C(F)F)CC3(O)C(F)F)c3ccccc3n2)cc1C` (stereo not given) as the compound, how does the IC50 read?
Answer: The IC50 was > 100 µM (inactive).

Question: How did the IC50 turn out when `COc1ccccc1N1CCN(C(CNC(=O)c2ccco2)c2cccnc2)CC1` (stereo not given) was run?
Answer: Its IC50 is > 100 µM (inactive).

Question: `N/C(Cc1ccc(Cl)cc1)=N\OC(=O)C1CCCCC1` was tested. Which IC50 did it give?
Answer: The IC50 was 11.5 µM.

Question: With `Cc1ccc(Oc2nc(CN3CCOCC3)nc3sc4c(c23)CCC(C)C4)cc1C` (stereo not given) as the compound, how does the IC50 read?
Answer: The IC50 was 26.1 µM.

Question: Which IC50 does the source give for `Oc1ccc(N=Nc2cccc(Cl)c2)cc1C=Nc1ccc(N2CCOCC2)cc1` here?
Answer: The IC50 was > 100 µM (inactive).

Question: How did the IC50 turn out when `CCn1ncc(C2=NOC(C(=O)Nc3c(C)n(C)n(-c4ccccc4)c3=O)C2)c1C` (stereo not given) was run?
Answer: The IC50 was > 100 µM (inactive).

Question: For `COc1cccc(C(=O)O/N=C(\N)Cc2ccc(Cl)cc2)c1`, which IC50 is on record?
Answer: Its IC50 is 4.09 µM.

Question: `NNC(=O)c1cccc(COc2ccc3c(c2)CCC3)c1` was tested. Which IC50 did it give?
Answer: Its IC50 is 17.3 µM.

Question: With `CC(C)(C)N/N=C/c1cc(Cl)cc([N+](=O)[O-])c1O` as the compound, how does the IC50 read?
Answer: The IC50 was 12.9 µM.

Question: With `O=S(=O)(Nc1ccc(-c2nc3ccccc3o2)cc1)c1ccccc1` as the compound, how does the IC50 read?
Answer: Its IC50 is > 100 µM (inactive).

Question: Which IC50 does the source give for `CCOC(=O)c1c(-c2ccc(-c3ccccc3)cc2)csc1NC(=O)CCN1CCOCC1` here?
Answer: The IC50 was 19.1 µM.

Question: Which IC50 does the source give for `O=C(Oc1csc(=S)n1C(=O)c1ccccc1)c1ccccc1` here?
Answer: Its IC50 is > 100 µM (inactive).

Question: With `Nc1nsc2ccccc12` as the compound, how does the IC50 read?
Answer: The IC50 was 24.3 µM.

Question: How did the IC50 turn out when `COc1ccc(-c2nncnn2)cc1` was run?
Answer: The IC50 was 10 µM.

Question: Which IC50 does the source give for `Cn1cccc1C(=O)NC(=O)CSc1cccc[n+]1[O-]` here?
Answer: The IC50 was 21.8 µM.

Question: For `Cc1c(C(=O)O)cccc1-c1ccc(/C=N/Nc2ccc(Br)cc2)o1`, which IC50 is on record?
Answer: The IC50 was > 100 µM (inactive).

Question: Which IC50 does the source give for `C/C(=N\Nc1ccc(Cl)cc1)c1ccccn1` here?
Answer: The IC50 was 43.5 µM.

Question: `O=c1cc(-c2ccccc2)n(S(=O)(=O)c2ccccc2)o1` was tested. Which IC50 did it give?
Answer: The IC50 was 39.8 µM.

Question: With `Clc1cccc(CN2COc3c(cc(Cl)c4cccnc34)C2)c1` as the compound, how does the IC50 read?
Answer: Its IC50 is 7.28 µM.

Question: `Cc1cc(N/N=C/c2ccc(Cl)cc2Cl)nc(NCc2ccccc2)n1` was tested. Which IC50 did it give?
Answer: Its IC50 is 28.9 µM.

Question: Which IC50 does the source give for `Clc1ccc2[nH]c3c(c2c1)CCc1cn[nH]c1-3` here?
Answer: Its IC50 is 12.5 µM.

Question: With `Cc1ccc(-n2c(C)cc(C(=O)COC(=O)c3ccc[nH]c3=O)c2C)cc1` as the compound, how does the IC50 read?
Answer: Its IC50 is 18.1 µM.

Question: For `CC(C)c1ccc(NC(=S)NCCc2c[nH]c3ccccc23)cc1`, which IC50 is on record?
Answer: The IC50 was > 100 µM (inactive).

Question: With `O=C(Nc1nnc(C2CC2)s1)c1ccccn1` as the compound, how does the IC50 read?
Answer: Its IC50 is 42.6 µM.

Question: With `CCC(C)N1CC23C=CC(O2)C(C(=O)OC)C3C1=O` (stereo not given) as the compound, how does the IC50 read?
Answer: Its IC50 is > 100 µM (inactive).

Question: `Cc1ccccc1OCCCN1C(=O)C(=O)c2cccc(C)c21` was tested. Which IC50 did it give?
Answer: Its IC50 is > 100 µM (inactive).

Question: How did the IC50 turn out when `O=[N+]([O-])c1ccccc1-c1cc(-c2cc(Cl)ccc2O)n[nH]1` was run?
Answer: Its IC50 is > 100 µM (inactive).

Question: Which IC50 does the source give for `Cc1onc(-c2ccccc2)c1C(=O)NC(=S)NNC(=O)c1ccc(O)cc1O` here?
Answer: Its IC50 is > 100 µM (inactive).

Question: With `CCc1ccc(S(=O)(=O)NCCc2cn3ccsc3n2)s1` as the compound, how does the IC50 read?
Answer: The IC50 was > 100 µM (inactive).

Question: `C=CCN1C(C(=O)c2ccccc2)=C(OC(=O)COc2ccccc2)c2ccccc2S1(=O)=O` was tested. Which IC50 did it give?
Answer: The IC50 was 26.9 µM.

Question: `O=C(O)CSc1cccc[n+]1[O-]` was tested. Which IC50 did it give?
Answer: Its IC50 is 33.9 µM.

Question: `Cc1cccc(OCCCCc2c(C)n[nH]c2C)c1C` was tested. Which IC50 did it give?
Answer: Its IC50 is 38.1 µM.

Question: Which IC50 does the source give for `O=S(=O)(/N=C(\Sc1ccc(Cl)cc1)c1ccccc1)c1ccccc1` here?
Answer: Its IC50 is 49.2 µM.

Question: With `Cc1cccc(C(=O)O/N=C/c2c(N3CCOCC3)n(C)c3ccccc23)c1` as the compound, how does the IC50 read?
Answer: Its IC50 is 35.3 µM.

Question: How did the IC50 turn out when `Oc1c(Cl)cc(Cl)c2c1NCCC2` was run?
Answer: Its IC50 is 17.4 µM.

Question: With `COc1ccc(-c2nnc3c4ccccc4c(C)nn23)cc1` as the compound, how does the IC50 read?
Answer: The IC50 was > 100 µM (inactive).

Question: With `COc1ccc2c(C)nc(Nc3nc(C)c(C)c(=O)[nH]3)nc2c1` as the compound, how does the IC50 read?
Answer: Its IC50 is 15 µM.

Question: With `CCOC(=O)c1c(N)sc(C(O)(C(F)(F)F)C(F)(F)F)c1-c1ccc(Cl)cc1` as the compound, how does the IC50 read?
Answer: Its IC50 is > 100 µM (inactive).

Question: How did the IC50 turn out when `COc1cc(OC)nc(NC(=O)CS(=O)(=O)c2ccccc2)n1` was run?
Answer: The IC50 was 33.4 µM.

Question: `CCOc1ccc(/C=C/[N+](=O)[O-])c2ccccc12` was tested. Which IC50 did it give?
Answer: The IC50 was > 100 µM (inactive).

Question: Which IC50 does the source give for `Cc1ccc(C(=O)CSC2=NC(N)=C(C#N)C3(CCCCC3)C2C(N)=O)cc1` (stereo not given) here?
Answer: The IC50 was > 100 µM (inactive).

Question: With `Cc1cc(-c2n[nH]c(=S)n2/N=C/c2cc([N+](=O)[O-])ccc2Cl)n[nH]1` as the compound, how does the IC50 read?
Answer: The IC50 was > 100 µM (inactive).

Question: How did the IC50 turn out when `Oc1c(Br)cc(Br)cc1C=Nc1ccc2c(c1)OCO2` was run?
Answer: The IC50 was > 100 µM (inactive).

Question: Which IC50 does the source give for `O/N=C/c1ccc(OCc2ccccc2)c(Br)c1` here?
Answer: The IC50 was > 100 µM (inactive).

Question: How did the IC50 turn out when `c1cncc(-c2nnc(-c3cccnc3)nn2)c1` was run?
Answer: The IC50 was 25.9 µM.

Question: For `O=C(OCn1ncc(Cl)c(Cl)c1=O)c1cccc(C(F)(F)F)c1`, which IC50 is on record?
Answer: Its IC50 is > 100 µM (inactive).

Question: Which IC50 does the source give for `Cn1cccc1C(=O)Nc1nc(-c2ccccn2)cs1` here?
Answer: The IC50 was 33.7 µM.

Question: How did the IC50 turn out when `O=Cc1c(Sc2ccccc2)nc2ccccn2c1=O` was run?
Answer: Its IC50 is 29 µM.

Question: For `COc1ccc(N/N=C(\C#N)C(N)=O)cc1`, which IC50 is on record?
Answer: The IC50 was > 100 µM (inactive).

Question: With `CCOc1ccc(N/N=C(/C#N)C(N)=O)cc1` as the compound, how does the IC50 read?
Answer: The IC50 was 7.82 µM.

Question: How did the IC50 turn out when `O=C(COc1ccc(Cl)cc1)NC1=NN(c2ccccc2)C(=O)C1` was run?
Answer: Its IC50 is > 100 µM (inactive).

Question: `CCCCCCCCCCCCCCCC[n+]1cccc(C(=O)N(CC)CC)c1` was tested. Which IC50 did it give?
Answer: Its IC50 is 3.69 µM.

Question: With `CCCCCCc1ccc(-c2ncc(N)cn2)cc1` as the compound, how does the IC50 read?
Answer: The IC50 was 25.9 µM.

Question: For `O=C1OCC(CO)(CO)N=C1NNc1ccc(Cl)c(Cl)c1`, which IC50 is on record?
Answer: Its IC50 is 2.89 µM.
